Reference: ChEMBL document CHEMBL5131546, “Discovery of 1H-Pyrazole Biaryl Sulfonamides as Novel G2019S-LRRK2 Kinase Inhibitors” (ACS Med Chem Lett, 2022)

Assays:
[1] = AUCinf in CD-1 mouse at 0.5 mg/kg, iv by LC-MS/MS analysis; format: ADME, organism-based; design: time infinity, dose 0.5 mg/kg, route iv; settings: in vivo
[2] = Tmax in CD-1 mouse at 2 mg/kg, po by LC-MS/MS analysis; format: ADME, organism-based; settings: in vivo
[3] = in vitro; settings: mouse, liver microsomes
[4] = Cmax in CD-1 mouse at 0.5 mg/kg, iv by LC-MS/MS analysis; format: ADME, organism-based; design: dose 0.5 mg/kg, route iv; settings: in vivo
[5] = Clearance in CD-1 mouse at 0.5 mg/kg, iv by LC-MS/MS analysis; format: ADME, organism-based; settings: in vivo
[6] = Oral bioavailability in CD-1 mouse at 2 mg/kg by LC-MS/MS analysis; format: ADME, organism-based; settings: in vivo
[7] = Half life in CD-1 mouse at 0.5 mg/kg, iv by LC-MS/MS analysis; format: ADME, organism-based; settings: in vivo
[8] = Cmax in CD-1 mouse at 2 mg/kg, po by LC-MS/MS analysis; format: ADME, organism-based; design: dose 2 mg/kg, route po; settings: in vivo
[9] = AUCinf in CD-1 mouse at 2 mg/kg, po by LC-MS/MS analysis; format: ADME, organism-based; design: time infinity, dose 2 mg/kg, route po; settings: in vivo
[10] = MRT in CD-1 mouse at 0.5 mg/kg, iv by LC-MS/MS analysis; format: ADME, organism-based; settings: in vivo
[11] = Half life in CD-1 mouse at 2 mg/kg, po by LC-MS/MS analysis; format: ADME, organism-based; settings: in vivo
[12] = Volume of distribution at steady state in CD-1 mouse at 0.5 mg/kg, iv by LC-MS/MS analysis; format: ADME, organism-based; settings: in vivo, read-out: Vdss
[13] = in vitro; settings: human, liver microsomes
[14] = in vitro; settings: human, Caco-2
[15] = in vitro; settings: human, Caco-2; remark: listed apart in the source
[16] = MRT in CD-1 mouse at 2 mg/kg, po by LC-MS/MS analysis; format: ADME, organism-based; settings: in vivo

AUC(0-inf) [1]: 0.58 µM·h
Tmax [2]: 1 h
half-life at 40 min [3]: 0.5 h
Cmax [4]: 580 nM
clearance [5]: 33.5 mL/min/kg
bioavailability [6]: 111%
half-life [7]: 0.8 h
Cmax [8]: 580 nM
AUC(0-inf) [9]: 2.55 µM·h
MRT [10]: 1.01 h
half-life [11]: 1.25 h
Vd [12]: 2 L/kg
half-life at 40 min [13]: 2.65 h
Papp B→A at 2 h, 10 µM [14]: 27 ×10⁻⁶ cm/s
Papp A→B at 2 h, 10 µM [15]: 8.78 ×10⁻⁶ cm/s
MRT [16]: 3.01 h
Structure (SMILES): Cc1[nH]nc(-c2ccncc2)c1-c1ccc(-c2cccc(S(N)(=O)=O)c2)c(C2CC2)c1
